What was measured:
Cercospora arachidicola = assay: Fungicidal (bactericidal) activity in vitro, PDA colony diameter; type: cell-based; conditions: 50 mg/kg; for inhibition of growth at 50 mg/kg: Mycosphaerella arachidis, 96 h
potato late blight = assay: microbe, parasite or virus in culture; type: cell-based; conditions: for inhibition of growth at 50 mg/kg: Phytophthora infestans, 96 h, read-out: Bactericidal activity (%) potato late blight
cucumber fusarium wilt = assay: Fungicidal (bactericidal) activity in vitro, PDA colony diameter; type: cell-based; conditions: 50 mg/kg; for inhibition of growth at 50 mg/kg: Fusarium, 96 h
Bipolaria maydis = assay: organism not typed; type: cell-based; conditions: for inhibition at 50 mg/kg: read-out: Bactericidal activity (%) Bipolaria maydis
[1] = tested on: Colletotrichum orbiculare; assay: Fungicidal (bactericidal) activity in vitro, PDA colony diameter; type: cell-based; conditions: 50 mg/kg; for inhibition of growth at 50 mg/kg: Colletotrichum orbiculare, 96 h
Phytophthora capsici = assay: as above; type: cell-based; conditions: 50 mg/kg; for inhibition of growth at 50 mg/kg: Phytophthora capsici, 96 h
corn borers [2] = assay: whole plant or invertebrate; conditions: read-out: Corn borer Mortality (%)
Rhizoctonia solani = assay: Fungicidal (bactericidal) activity in vitro, PDA colony diameter; type: cell-based; conditions: 50 mg/kg; for inhibition of growth at 50 mg/kg: Rhizoctonia solani, 96 h
[3] = tested on: tobacco mosaic virus (TMV); assay: Anti-TMV activity, overall statements on Table 1; type: in vivo, tobacco mosaic virus (host Nicotiana tabacum L.cv.Xanthi NN); conditions: 100 μg/mL versus ningnanmycin at 100 μg/mL
Rhizoctonia cereali = assay: Fungicidal (bactericidal) activity in vitro, PDA colony diameter; type: cell-based; conditions: 50 mg/kg; for inhibition of growth at 50 mg/kg: Rhizoctonia, 96 h
Sclerotinia scleotiorum = assay: as above; type: cell-based; conditions: 50 mg/kg; for inhibition of growth at 50 mg/kg: Sclerotinia, 96 h
Botrytis cinerea = assay: as above; type: cell-based; conditions: 50 mg/kg; for inhibition of growth at 50 mg/kg: Botrytis cinerea, 96 h
Fusarium fujikuroi = assay: as above; type: cell-based; conditions: 50 mg/kg; for inhibition of growth at 50 mg/kg: Fusarium fujikuroi, 96 h
[4] = tested on: tobacco mosaic virus (TMV); assay: Anti-TMV in vitro effect (half-leaf soaking); type: cell-based, tobacco mosaic virus (host Nicotiana tabacum L.cv.Xanthi NN); conditions: for inhibition at 100 µg/mL / inhibition at 500 µg/mL: Tobacco mosaic virus, read-out: Relative inhibition rate (%) In vitro activity
[5] = tested on: tobacco mosaic virus (TMV); assay: Anti-TMV in vivo therapeutic effect; parameters: species or system tobacco mosaic virus (host Nicotiana tabacum L.cv.Xanthi NN); conditions: for inhibition at 100 µg/mL / inhibition at 500 µg/mL: Tobacco mosaic virus, read-out: Relative inhibition rate (%) In vivo therapy
armyworms = type: in vivo; conditions: concentration 600 mg/kg
[6] = tested on: tobacco mosaic virus (TMV); assay: Anti-TMV in vivo protective effect; parameters: species or system tobacco mosaic virus (host Nicotiana tabacum L.cv.Xanthi NN); conditions: for inhibition at 100 µg/mL / inhibition at 500 µg/mL: Tobacco mosaic virus, read-out: Relative inhibition rate (%) In vivo protection
Macrophoma kawatsukai = assay: Fungicidal (bactericidal) activity in vitro, PDA colony diameter; type: cell-based; conditions: 50 mg/kg
cotton bollworms = assay: whole plant or invertebrate; conditions: for mortality at 600 mg/kg: Helicoverpa armigera, in Gossypium hirsutum, read-out: Cotton bollworm Mortality (%)
Method: Experimental method of cotton bollworms: feed and drug mixing method: measure 3 mL of prepared solution and add it to about 27 g of newly prepared feed, thereby obtaining needed concentration through dilution by 10 times.

Alternaria solani = assay: Fungicidal (bactericidal) activity in vitro, PDA colony diameter; type: cell-based; conditions: 50 mg/kg; for inhibition of growth at 50 mg/kg: Alternaria solani, 96 h
[7] = tested on: tobacco mosaic virus (TMV); assay: Anti-TMV in vivo inactivation; parameters: species or system tobacco mosaic virus (host Nicotiana tabacum L.cv.Xanthi NN); conditions: for inhibition at 100 µg/mL / inhibition at 500 µg/mL: Tobacco mosaic virus, read-out: Relative inhibition rate (%) In vivo inactivation
mosquito larvae = assay: whole plant or invertebrate; conditions: for mortality at 10 mg/kg: Culex pipiens, read-out: Mosquito larvae Mortality (%); for mortality at 10 mg/kg / Mosquito larvae Mortality (%): 24 h
Procedure, shortened: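 Compound dissolved in acetone (or other solvent) to a 1000 ppm stock and diluted in water to 5 ppm. Ten Culex pipiens pallens larvae at the start of the fourth instar, laboratory-reared, added per beaker; solvent-only aqueous control.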

Fusarium graminearumt = assay: microbe, parasite or virus in culture; type: cell-based; conditions: for inhibition of growth at 50 mg/kg: Fusarium, 96 h, read-out: Bactericidal activity (%) Fusarium graminearumt
corn borers [8] = conditions: concentration 600 mg/kg
[9] = tested on: armyworms, cotton bollworms and corn borers; assay: Insecticidal activity, overall statements on Table 3; type: in vivo; conditions: Table 3, 600 mg/kg

## CC1=NCCc2c1[nH]c1ccccc21 [Harmalan]
Cercospora arachidicola
  inhibition of growth at 50 mg/kg: 76.9%
Potato late blight
  inhibition of growth at 50 mg/kg: 31.8%
Cucumber fusarium wilt
  inhibition of growth at 50 mg/kg: 23.1%
Bipolaria maydis
  inhibition at 50 mg/kg: 27.3%
[1]
  inhibition of growth at 50 mg/kg: 25%
Phytophthora capsici
  inhibition of growth at 50 mg/kg: 0%
Corn borers [2]
  mortality at 600 mg/kg: 15%
Rhizoctonia solani
  inhibition of growth at 50 mg/kg: 19.7%
[3]
  anti-TMV activity compared with ningnanmycin: equivalent to the activity of commercial variety ningnanmycin
Rhizoctonia cereali
  inhibition of growth at 50 mg/kg: 55.3%
Sclerotinia scleotiorum
  inhibition of growth at 50 mg/kg: 19.6%
Botrytis cinerea
  inhibition of growth at 50 mg/kg: 15.2%
Fusarium fujikuroi
  inhibition of growth at 50 mg/kg: 28.6%
[4]; treatment dose 100 μg/mL
  inhibition at 100 µg/mL: 30%
[4]; treatment dose 500 μg/mL
  inhibition at 500 µg/mL: 58.6%
[5]; treatment dose 100 μg/mL
  inhibition at 100 µg/mL: 34.8%
[5]; treatment dose 500 μg/mL
  inhibition at 500 µg/mL: 55.1%
armyworms
  Armyworm Mortality (%): 20%
[6]; treatment dose 100 μg/mL
  inhibition at 100 µg/mL: 35.6%
[6]; treatment dose 500 μg/mL
  inhibition at 500 µg/mL: 60.3%
Macrophoma kawatsukai
  inhibition at 50 mg/kg: 2.4%
Cotton bollworms
  mortality at 600 mg/kg: 10%
Alternaria solani
  inhibition of growth at 50 mg/kg: 26.3%
[7]; treatment dose 100 μg/mL
  inhibition at 100 µg/mL: 32.7%
[7]; treatment dose 500 μg/mL
  inhibition at 500 µg/mL: 62.3%
Mosquito larvae
  mortality at 10 mg/kg: 35%
Fusarium graminearumt
  inhibition of growth at 50 mg/kg: 21.4%

## Cc1nccc2c1[nH]c1cc(OC(=O)C(C)(C)C)ccc12 [Ia-8, Tert-valerate (1-methylpyridino [3,4-b]indol-7)-ester]
Cercospora arachidicola
  Bactericidal activity (%) Cercospora arachidicola: 71.4%
Potato late blight; 50 mg/kg
  Bactericidal activity (%) potato late blight: 50.0%
Cucumber fusarium wilt
  Bactericidal activity (%) Cucumber fusarium wilt: 52.4%
Bipolaria maydis; 50 mg/kg
  Bactericidal activity (%) Bipolaria maydis: 79.0%
[1]
  Bactericidal activity (%) Colletotrichum orbiculare: 71.4%
Phytophthora capsici
  Bactericidal activity (%) Phytophthora capsici: 93.9%
Rhizoctonia solani
  Bactericidal activity (%) Rhizoctonia solani: 42.9%
Rhizoctonia cereali
  Bactericidal activity (%) Rhizoctonia cereali: 90.6%
Sclerotinia scleotiorum
  Bactericidal activity (%) Sclerotinia scleotiorum: 80.0%
Botrytis cinerea
  Bactericidal activity (%) Botrytis cinerea: 54.6%
Fusarium fujikuroi
  Bactericidal activity (%) Fusarium fujikuroi: 50.0%
[4]; treatment dose 100 μg/mL
  Relative inhibition rate (%) In vitro activity: 0%
[4]; treatment dose 500 μg/mL
  Relative inhibition rate (%) In vitro activity: 0%
[5]; treatment dose 100 μg/mL
  Relative inhibition rate (%) In vivo therapy: 0%
[5]; treatment dose 500 μg/mL
  Relative inhibition rate (%) In vivo therapy: 0%
armyworms
  Armyworm Mortality (%): 70%
[6]; treatment dose 100 μg/mL
  Relative inhibition rate (%) In vivo protection: 0%
[6]; treatment dose 500 μg/mL
  Relative inhibition rate (%) In vivo protection: 14.4%
Macrophoma kawatsukai
  Bactericidal activity (%) Macrophoma kawatsukai: 76.5%
Corn borers [8]
  Corn borer Mortality (%): 65%
Cotton bollworms; concentration 600 mg/kg
  Cotton bollworm Mortality (%): 15%
Alternaria solani
  Bactericidal activity (%) Alternaria solani: 66.7%
[7]; treatment dose 100 μg/mL
  Relative inhibition rate (%) In vivo inactivation: 0%
[7]; treatment dose 500 μg/mL
  Relative inhibition rate (%) In vivo inactivation: 15.3%
Mosquito larvae; at 5 mg/kg
  activity against culex pipiens larvae (in words): still show high activity
Mosquito larvae; concentration 5 mg/kg
  Mosquito larvae Mortality (%): 60%
Mosquito larvae; concentration 10 mg/kg
  Mosquito larvae Mortality (%): 100%
[9]
  activity against armyworms, cotton bollworms and corn borers (in words): broad-spectrum activity
Fusarium graminearumt; 50 mg/kg
  Bactericidal activity (%) Fusarium graminearumt: 78.6%

## C[C@@H]1N[C@H](C(=O)NN)Cc2c1[nH]c1ccccc21 [Ib-15, (1S, 3S)-1-methyl-2,3,4,9-tetrahydropyridino [3,4-b] indol-3-formylhydrazine]
Cercospora arachidicola
  inhibition of growth at 50 mg/kg: 18.2%
Potato late blight
  inhibition of growth at 50 mg/kg: 26.1%
Cucumber fusarium wilt
  inhibition of growth at 50 mg/kg: 13.6%
Bipolaria maydis
  inhibition at 50 mg/kg: 24%
[1]
  inhibition of growth at 50 mg/kg: 24%
Phytophthora capsici
  inhibition of growth at 50 mg/kg: 51.5%
Corn borers [2]
  mortality at 600 mg/kg: 30%
Rhizoctonia solani
  inhibition of growth at 50 mg/kg: 4.2%
[3]
  anti-TMV activity compared with ningnanmycin: equivalent to the activity of commercial variety ningnanmycin
Rhizoctonia cereali
  inhibition of growth at 50 mg/kg: 54.1%
Sclerotinia scleotiorum
  inhibition of growth at 50 mg/kg: 30.8%
Botrytis cinerea
  inhibition of growth at 50 mg/kg: 27.8%
Fusarium fujikuroi
  inhibition of growth at 50 mg/kg: 29.4%
[4]; treatment dose 100 μg/mL
  inhibition at 100 µg/mL: 21.4%
[4]; treatment dose 500 μg/mL
  inhibition at 500 µg/mL: 50%
[5]; treatment dose 100 μg/mL
  inhibition at 100 µg/mL: 20.3%
[5]; treatment dose 500 μg/mL
  inhibition at 500 µg/mL: 48.2%
armyworms
  Armyworm Mortality (%): 20%
[6]; treatment dose 100 μg/mL
  inhibition at 100 µg/mL: 23.4%
[6]; treatment dose 500 μg/mL
  inhibition at 500 µg/mL: 49.6%
Macrophoma kawatsukai
  inhibition at 50 mg/kg: 39.4%
Cotton bollworms
  mortality at 600 mg/kg: 20%
Alternaria solani
  inhibition of growth at 50 mg/kg: 9.5%
[7]; treatment dose 100 μg/mL
  inhibition at 100 µg/mL: 16.5%
[7]; treatment dose 500 μg/mL
  inhibition at 500 µg/mL: 46%
Mosquito larvae
  mortality at 10 mg/kg: 40%
Fusarium graminearumt
  inhibition of growth at 50 mg/kg: 38.5%
